What was measured:
[1] = organism: Homo sapiens; test: Selectivity index, ratio IC50 for inhibition of recombinant human full-length N-terminal His6-tagged p110beta/untagged full-length p85alpha expressed in baculovirus infected Sf21 cells to ratio IC50 for inhibition of recombinant human full-length N-terminal GST-tagged p110delta/untagged full-length p85alpha expressed in baculovirus infected Sf21 cells
[2] = target: Tyrosine-protein kinase ABL1 (Homo sapiens, UniProt P00519); test: Inhibition of recombinant full length human His-tagged ABL1 cytoplasmic domain expressed in baculovirus expression system using tyrosine-2 peptide as substrate incubated for 60 mins in presence of ATP by Z'-LYTE assay
[3] = target: Vasopressin V1a receptor (Homo sapiens) (UniProt P37288); test: Displacement of [125I]phenylacetylTyr(Me)PheGlnAsnArgProArgTyr from recombinant full length human V1A receptor expressed in HEK293 cells at 10 uM after 120 mins by radiometric scintillation analysis relative to control; assay type: cell-based
Chain of Vasopressin V1a receptor (Homo sapiens) (P37288 whole entry, looked up): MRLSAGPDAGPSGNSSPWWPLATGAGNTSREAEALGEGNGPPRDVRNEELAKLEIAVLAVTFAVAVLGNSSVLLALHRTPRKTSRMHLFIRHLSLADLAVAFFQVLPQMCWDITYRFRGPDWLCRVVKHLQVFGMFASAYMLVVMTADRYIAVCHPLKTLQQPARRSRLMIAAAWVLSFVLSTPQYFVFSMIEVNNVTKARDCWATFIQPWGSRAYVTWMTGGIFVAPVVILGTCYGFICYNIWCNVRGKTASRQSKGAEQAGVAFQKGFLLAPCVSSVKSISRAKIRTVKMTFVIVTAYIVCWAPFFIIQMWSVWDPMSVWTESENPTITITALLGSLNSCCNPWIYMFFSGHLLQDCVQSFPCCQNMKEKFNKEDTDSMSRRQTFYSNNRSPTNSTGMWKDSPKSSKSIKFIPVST

[4] = target: Thyrotropin-releasing hormone receptor (Rattus norvegicus) (UniProt Q01717); test: Inhibition of rat TRH receptor at 10 uM relative to control
[5] = target: Platelet-activating factor receptor (Homo sapiens) (UniProt P25105); test: Inhibition of human PAF at 10 uM relative to control
Chain of Platelet-activating factor receptor (Homo sapiens) (P25105 whole entry): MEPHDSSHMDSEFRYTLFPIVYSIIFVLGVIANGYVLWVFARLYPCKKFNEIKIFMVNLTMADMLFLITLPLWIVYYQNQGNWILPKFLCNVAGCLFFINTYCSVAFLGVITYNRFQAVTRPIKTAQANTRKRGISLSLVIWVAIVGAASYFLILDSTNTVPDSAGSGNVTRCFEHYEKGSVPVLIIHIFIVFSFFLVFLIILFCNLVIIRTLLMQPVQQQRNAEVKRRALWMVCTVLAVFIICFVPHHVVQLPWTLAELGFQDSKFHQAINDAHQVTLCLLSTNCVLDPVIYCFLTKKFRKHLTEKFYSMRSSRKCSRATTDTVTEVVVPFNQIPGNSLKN

[6] = target: D(1A) dopamine receptor (Homo sapiens) (UniProt P21728); test: Displacement of [3H]SCH-23390 from recombinant full length human recombinant dopamine D1 receptor expressed in CHO cells at 10 uM measured after 120 mins by radiometric scintillation analysis relative to control; assay type: cell-based
Chain of D(1A) dopamine receptor (Homo sapiens) (P21728 whole entry): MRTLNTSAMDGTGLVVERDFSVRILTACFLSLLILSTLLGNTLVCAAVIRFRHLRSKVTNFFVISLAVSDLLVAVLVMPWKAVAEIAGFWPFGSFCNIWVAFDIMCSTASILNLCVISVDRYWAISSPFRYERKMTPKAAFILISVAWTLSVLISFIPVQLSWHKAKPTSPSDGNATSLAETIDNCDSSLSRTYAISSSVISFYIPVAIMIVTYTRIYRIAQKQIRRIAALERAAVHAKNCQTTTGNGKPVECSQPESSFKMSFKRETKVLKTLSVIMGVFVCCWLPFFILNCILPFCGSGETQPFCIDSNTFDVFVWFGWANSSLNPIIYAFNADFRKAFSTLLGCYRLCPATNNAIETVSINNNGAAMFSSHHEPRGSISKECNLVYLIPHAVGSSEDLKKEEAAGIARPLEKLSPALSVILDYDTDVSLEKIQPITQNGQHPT

[7] = target: C-X-C chemokine receptor type 4 (Homo sapiens) (UniProt P61073); test: Displacement of [125I]SDF-1alpha from recombinant full length human recombinant CXCR4 expressed in Chem-1 cells at 10 uM measured after 90 mins by radiometric scintillation analysis relative to control; assay type: cell-based
[8] = target: Alpha-2A adrenergic receptor (Homo sapiens) (UniProt P08913); test: Displacement of [3H]rauwolscine from full-length recombinant human alpha2A receptor expressed in CHOK1 cells at 10 uM measured after 60 mins by scintillation counting method relative to control; assay type: cell-based; conditions: CHO-K1
[9] = target: Cyclin-dependent kinase 5/CDK5 activator 1 (Homo sapiens, UniProt Q00535); test: Inhibition of recombinant full length human His-tagged CDK5/p35 expressed in baculovirus expression system using serine/threonine-12 peptide as substrate incubated for 60 mins in presence of ATP by Z'-LYTE assay
[10] = target: Casein kinase I isoform gamma-1 (Homo sapiens, UniProt Q9HCP0); test: Inhibition of recombinant human full-length GST-tagged CSNK1G1 expressed in baculovirus expression system using FRET-labeled Ser/Thr 05 peptide as substrate measured after 1 hr in presence of ATP by Z'-lyte assay
[11] = target: Epidermal growth factor receptor (Homo sapiens, UniProt P00533, L858R/T790M); test: Inhibition of human recombinant GST-tagged EGFR L858R/T790M mutant expressed in baculovirus expression system using tyrosine 4 peptide as substrate after 60 mins in presence of ATP FRET based Z'-LYTE assay
[12] = target: Insulin receptor (Homo sapiens, UniProt P06213); test: Inhibition of recombinant human GST-tagged INSR cytoplasmic domain expressed in baculovirus expression system using tyrosine-1 peptide as substrate incubated for 60 mins in presence of ATP by Z'-LYTE assay
Chain of Insulin receptor (P06213 28-758 limits assumed): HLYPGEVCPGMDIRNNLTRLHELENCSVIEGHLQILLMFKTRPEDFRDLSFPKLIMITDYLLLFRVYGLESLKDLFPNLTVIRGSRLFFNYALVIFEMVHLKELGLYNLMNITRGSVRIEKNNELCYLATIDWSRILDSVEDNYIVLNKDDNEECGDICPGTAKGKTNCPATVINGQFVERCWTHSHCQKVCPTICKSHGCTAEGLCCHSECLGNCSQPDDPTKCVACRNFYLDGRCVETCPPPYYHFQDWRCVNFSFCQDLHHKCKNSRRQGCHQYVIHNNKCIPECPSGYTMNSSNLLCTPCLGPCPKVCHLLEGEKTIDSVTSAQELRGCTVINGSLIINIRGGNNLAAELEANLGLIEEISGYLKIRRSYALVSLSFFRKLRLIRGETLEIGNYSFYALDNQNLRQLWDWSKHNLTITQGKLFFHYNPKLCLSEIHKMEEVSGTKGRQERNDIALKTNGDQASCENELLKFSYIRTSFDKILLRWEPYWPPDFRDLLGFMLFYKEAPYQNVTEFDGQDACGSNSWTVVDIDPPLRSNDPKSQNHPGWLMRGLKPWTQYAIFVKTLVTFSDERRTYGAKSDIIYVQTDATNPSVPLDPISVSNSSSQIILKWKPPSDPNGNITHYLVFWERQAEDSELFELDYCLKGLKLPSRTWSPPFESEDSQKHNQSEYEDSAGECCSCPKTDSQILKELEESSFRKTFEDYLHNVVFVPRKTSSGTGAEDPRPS
Chain of Insulin receptor (P06213 763-1382 limits assumed): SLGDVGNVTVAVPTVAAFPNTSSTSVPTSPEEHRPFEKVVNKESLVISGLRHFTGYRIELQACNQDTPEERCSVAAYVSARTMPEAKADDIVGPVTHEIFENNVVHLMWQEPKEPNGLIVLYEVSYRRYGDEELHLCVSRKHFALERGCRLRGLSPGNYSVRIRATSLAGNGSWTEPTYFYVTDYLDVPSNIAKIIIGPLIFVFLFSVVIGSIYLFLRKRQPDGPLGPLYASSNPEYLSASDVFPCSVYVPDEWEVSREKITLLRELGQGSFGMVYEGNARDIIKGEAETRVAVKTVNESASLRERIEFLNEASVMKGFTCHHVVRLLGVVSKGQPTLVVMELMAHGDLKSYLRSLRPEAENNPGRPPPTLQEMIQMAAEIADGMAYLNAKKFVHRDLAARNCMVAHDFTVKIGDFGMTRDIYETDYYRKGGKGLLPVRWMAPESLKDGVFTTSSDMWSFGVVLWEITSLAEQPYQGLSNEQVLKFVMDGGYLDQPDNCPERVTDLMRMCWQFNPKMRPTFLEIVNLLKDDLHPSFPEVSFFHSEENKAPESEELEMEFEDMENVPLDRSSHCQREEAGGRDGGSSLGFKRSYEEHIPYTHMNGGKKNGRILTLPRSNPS

[13] = target: Tyrosine-protein kinase JAK2 (Homo sapiens, UniProt O60674, V617F); test: Inhibition of human recombinant GST tagged JAK2 V617F mutant catalytic domain expressed in baculovirus expression system using Tyr6 peptide as substrate measured after 1 hr in presence of ATP by Z'-LYTE assay
[14] = target: Leukocyte tyrosine kinase receptor (Homo sapiens, UniProt P29376); test: Inhibition of recombinant human GST-tagged LTK (450 to 864 residues) cytoplasmic domain expressed in baculovirus expression system using tyrosine-6 peptide as substrate incubated for 60 mins in presence of ATP by Z'-LYTE assay
Chain of Leukocyte tyrosine kinase receptor (P29376 whole entry, the tested form may be a part): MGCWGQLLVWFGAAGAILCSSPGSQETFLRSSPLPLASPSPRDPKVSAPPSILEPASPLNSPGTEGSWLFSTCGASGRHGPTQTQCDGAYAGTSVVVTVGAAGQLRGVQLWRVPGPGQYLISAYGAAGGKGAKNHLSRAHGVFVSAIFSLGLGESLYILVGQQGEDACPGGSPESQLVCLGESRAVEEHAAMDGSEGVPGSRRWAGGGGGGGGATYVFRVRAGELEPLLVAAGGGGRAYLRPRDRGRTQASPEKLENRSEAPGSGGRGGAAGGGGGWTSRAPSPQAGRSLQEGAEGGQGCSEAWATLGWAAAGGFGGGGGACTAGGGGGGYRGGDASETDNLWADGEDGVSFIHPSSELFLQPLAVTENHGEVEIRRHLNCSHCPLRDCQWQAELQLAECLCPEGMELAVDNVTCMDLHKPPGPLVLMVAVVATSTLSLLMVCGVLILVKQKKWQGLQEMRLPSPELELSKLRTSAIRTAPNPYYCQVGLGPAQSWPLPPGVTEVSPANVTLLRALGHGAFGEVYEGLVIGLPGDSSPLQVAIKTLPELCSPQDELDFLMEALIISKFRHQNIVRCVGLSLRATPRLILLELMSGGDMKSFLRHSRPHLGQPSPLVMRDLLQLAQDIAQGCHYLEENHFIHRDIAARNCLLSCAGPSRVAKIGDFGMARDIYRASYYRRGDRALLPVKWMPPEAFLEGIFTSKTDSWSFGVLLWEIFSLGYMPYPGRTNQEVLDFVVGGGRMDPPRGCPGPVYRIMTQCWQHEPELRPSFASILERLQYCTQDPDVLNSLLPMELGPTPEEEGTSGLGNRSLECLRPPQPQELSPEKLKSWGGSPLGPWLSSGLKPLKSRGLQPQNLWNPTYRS

[15] = target: Mitogen-activated protein kinase kinase kinase 8 (Homo sapiens, UniProt P41279); test: Inhibition of recombinant human GST-tagged MAP3K8 catalytic domain expressed in baculovirus expression system using serine/threonine-3 peptide as substrate incubated for 60 mins in presence of ATP by Z'-LYTE assay
Chain of Mitogen-activated protein kinase kinase kinase 8 (P41279 whole entry, the tested form may be a part): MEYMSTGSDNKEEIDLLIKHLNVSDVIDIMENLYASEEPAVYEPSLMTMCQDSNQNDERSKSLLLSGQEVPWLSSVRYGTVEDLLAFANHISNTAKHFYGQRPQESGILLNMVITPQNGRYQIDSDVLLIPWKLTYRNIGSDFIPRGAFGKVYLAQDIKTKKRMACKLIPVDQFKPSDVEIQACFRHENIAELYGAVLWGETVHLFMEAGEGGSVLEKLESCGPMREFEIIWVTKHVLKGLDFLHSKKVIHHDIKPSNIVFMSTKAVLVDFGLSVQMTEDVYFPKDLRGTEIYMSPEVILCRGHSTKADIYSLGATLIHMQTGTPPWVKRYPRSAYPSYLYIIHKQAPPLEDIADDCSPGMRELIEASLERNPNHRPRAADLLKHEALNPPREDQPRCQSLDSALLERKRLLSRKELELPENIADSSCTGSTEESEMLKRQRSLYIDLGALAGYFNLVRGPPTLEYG

[16] = target: MAP kinase-activated protein kinase 5 (Homo sapiens, UniProt Q8IW41); test: Inhibition of recombinant full length human His-tagged PRAK expressed in baculovirus expression system using serine/threonine-4 peptide as substrate incubated for 60 mins in presence of ATP by Z'-LYTE assay
[17] = target: Serine/threonine-protein kinase MARK1 (Homo sapiens, UniProt Q9P0L2); test: Inhibition of recombinant full length human GST-tagged MARK1 expressed in baculovirus expression system using serine/threonine-21 peptide as substrate incubated for 60 mins in presence of ATP by Z'-LYTE assay
[18] = target: Serine/threonine-protein kinase Nek7 (Homo sapiens, UniProt Q8TDX7); test: Inhibition of NEK7 (unknown origin) by Z'LYTE assay
Chain of Serine/threonine-protein kinase Nek7 (Q8TDX7 whole entry, the tested form may be a part): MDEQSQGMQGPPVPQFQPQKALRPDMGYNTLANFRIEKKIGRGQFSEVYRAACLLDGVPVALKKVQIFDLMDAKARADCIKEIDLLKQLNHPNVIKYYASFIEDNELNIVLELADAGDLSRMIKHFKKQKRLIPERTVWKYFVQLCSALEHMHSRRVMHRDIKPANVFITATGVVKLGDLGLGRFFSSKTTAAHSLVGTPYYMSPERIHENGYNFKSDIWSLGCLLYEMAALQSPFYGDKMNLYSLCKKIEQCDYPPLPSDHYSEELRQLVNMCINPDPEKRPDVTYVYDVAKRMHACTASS

[19] = target: NT-3 growth factor receptor (Homo sapiens, UniProt Q16288); test: Inhibition of recombinant human His-tagged TrkC cytoplasmic domain (510 to 825 residues) expressed in baculovirus using tyr 01 as substrate incubated for 1 hr in presence of ATP by Z'-Lyte assay
[20] = target: Platelet-derived growth factor receptor alpha (Homo sapiens, UniProt P16234, T674I); test: Inhibition of recombinant human GST-tagged PDGFRalpha cytoplasmic domain (550 to 1089 residues) harboring T674I mutant expressed in baculovirus expression system using tyrosine-4 peptide as substrate incubated for 60 mins in presence of ATP by Z'-LYTE assay
[21] = target: Phosphatidylinositol 4-phosphate 3-kinase C2 domain-containing subunit alpha (Homo sapiens, UniProt O00443); test: Inhibition of recombinant full length human N-terminal GST-tagged PIK3C2alpha catalytic domain expressed in baculovirus expression system using PI lipid as substrate incubated for 60 mins in presence of ATP by Adapta assay
[22] = target: Protein-tyrosine kinase 2-beta (Homo sapiens, UniProt Q14289); test: Inhibition of recombinant full length human N-terminal GST-tagged PTK2B cytoplasmic domain expressed in baculovirus expression system using tyr01 peptide as substrate incubated for 60 mins in presence of ATP by Z'-LYTE assay
[23] = target: Proto-oncogene tyrosine-protein kinase Src (Homo sapiens, UniProt P12931); test: Inhibition of recombinant full length human His-tagged SRC expressed in baculovirus expression system using tyrosine-2 peptide as substrate incubated for 60 mins in presence of ATP by Z'-LYTE assay
[24] = target: Serine/threonine-protein kinase 4 (Homo sapiens, UniProt Q13043); test: Inhibition of recombinant full length human GST-tagged MST1 expressed in baculovirus expression system using serine/threonine-7 peptide as substrate incubated for 60 mins in presence of ATP by Z'-LYTE assay
Chain of Serine/threonine-protein kinase 4 (Q13043 whole entry, the tested form may be a part): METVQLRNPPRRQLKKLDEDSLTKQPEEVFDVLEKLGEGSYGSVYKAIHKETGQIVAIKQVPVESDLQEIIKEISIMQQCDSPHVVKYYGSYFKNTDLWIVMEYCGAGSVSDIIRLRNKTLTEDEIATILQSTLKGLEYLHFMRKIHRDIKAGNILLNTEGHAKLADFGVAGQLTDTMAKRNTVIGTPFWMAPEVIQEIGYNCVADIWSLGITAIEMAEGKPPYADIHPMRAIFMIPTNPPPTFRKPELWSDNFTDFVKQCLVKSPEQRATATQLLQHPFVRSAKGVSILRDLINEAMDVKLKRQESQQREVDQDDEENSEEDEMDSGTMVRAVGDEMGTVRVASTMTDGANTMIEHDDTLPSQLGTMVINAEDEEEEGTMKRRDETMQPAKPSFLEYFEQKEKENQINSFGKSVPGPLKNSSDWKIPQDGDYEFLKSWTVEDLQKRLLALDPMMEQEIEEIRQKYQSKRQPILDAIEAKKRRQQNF

[25] = target: Non-receptor tyrosine-protein kinase TYK2 (Homo sapiens, UniProt P29597); test: Inhibition of recombinant human GST-tagged TYK2 catalytic domain (833 to 1187 residues) expressed in baculovirus expression system using tyrosine-3 peptide as substrate incubated for 60 mins in presence of ATP by Z'-LYTE assay

## C[C@@H]1C[C@H]1C(=O)N1CCN(c2cnc(C#N)c(-c3cnn(C)c3)n2)C[C@H]1C
[1]
  Ratio IC50: 2990
[2]
  IC50: > 100 µM
[3]
  inhibition: -3%
[4]
  inhibition: 0%
[5]
  inhibition: -5%
[6]
  inhibition: 2%
[7]
  inhibition: 5%
[8]
  inhibition: 2%
[9]
  IC50: > 100 µM
[10]
  IC50: > 100 µM
[11]
  IC50: > 100 µM
[12]
  IC50: > 100 µM
[13]
  IC50: > 100 µM
[14]
  IC50: > 100 µM
[15]
  IC50: > 100 µM
[16]
  IC50: > 100 µM
[17]
  IC50: > 100 µM
[18]
  IC50: > 100 µM
[19]
  IC50: > 100 µM
[20]
  IC50: > 100 µM
[21]
  IC50: > 100 µM
[22]
  IC50: > 100 µM
[23]
  IC50: > 100 µM
[24]
  IC50: > 100 µM
[25]
  IC50: > 100 µM

From ChEMBL document CHEMBL4602617, “Discovery and optimization of heteroaryl piperazines as potent and selective PI3Kδ inhibitors” (Bioorg Med Chem Lett, 2020)
